This is an account of results in ChEMBL document CHEMBL1201862, “PubChem BioAssay data set” (2004).

Experiment [1] is described as follows: Luminescent dose response cell-based high throughput screening assay for inhibitors of the Janus kinase 2 mutant JAK2V617F. [Related pubchem assays: 1446 (Primary screen.), 1521 (Confirmation assay.), 1486 (Counter screen.)]. It counts as functional. On the technique in general: Counterscreens check selectivity or assay interference.
Experiment [2] deals with Peroxisome proliferator-activated receptor gamma/Nuclear receptor coactivator 2 (Homo sapiens, UniProt P37231). The experiment can be described thus: TR-FRET dose response biochemical High Throughput Screening assay for agonists of the steroid receptor coactivator 2 (SRC-2) recruitment by the peroxisome proliferator-activated receptor gamma (PPAR gamma): non-selective agonists. [Related pubchem assays: 1297, 1032 ]. It counts as functional. In general terms: In TR-FRET formats the signal depends on donor and acceptor labels being close together.

A further experiment relates to Vero. The experiment can be described thus: viability of Vero cells under compound – cytotoxicity control for flavivirus capping enzyme inhibitors (AID 588742). To be noted: Chlorocebus sabaeus. It counts as functional.
Experiment [3] has as its target Peroxisome proliferator-activated receptor gamma/Nuclear receptor coactivator 1 (Homo sapiens, UniProt P37231). The experiment can be described thus: TR-FRET dose response biochemical High Throughput Screening assay for agonists of the steroid receptor coactivator 1 (SRC-1) recruitment by the peroxisome proliferator-activated receptor gamma (PPAR gamma): non-selective agonists. [Related pubchem assays (depositor defined):AID1300, AID1808, AID504735, AID631]. It counts as protein assay.

The nature of experiment [4]: viability of PTEN-deleted HCT116 cells – cell-based, HCT116 PTEN knockout, dose response (AID 1047).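 Further: HCT116 colon tumor cells with PTEN knocked out; cells exposed to compound for 60 hours before readout; potency for loss of cell viability measured by luminescence.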 It counts as functional.
Experiment [5] can be described thus: blockers of HIV-1 envelope-mediated cell-cell fusion – cherry-pick, dose response (AID 652057). It counts as functional, cell-based.
For experiment [6], the target named is Heat shock protein HSP 90-alpha (Homo sapiens, UniProt P07900). The experiment can be described thus: Luminescence-based dose response biochemical high throughput screening assay for inhibitors of the Heat Shock Protein 90 (HSP90). [Related pubchem assays: 1831 (Summary AID.), 1846 (Confirmation screen.), 1789 (Primary screen.)].
Experiment [7] can be described thus: viability loss in CEM21 cells – cell-based, CellTiter-Glo luminescence, cherry-picked, cytotoxicity control for viral fusion inhibitor project, dose response (AID 652042).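 Further: potency for signal decrease meaning cytotoxicity.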 Type of experiment: functional. On the technique in general: Cellular ATP, detected with luciferase, serves as a proxy for viable cell number.
Experiment [8] in a line: HIV-1 AD8 envelope cell-cell fusion blockers – cherry-pick, dose response (AID 652062).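 Further: luciferase signal from cell-cell fusion driven by HIV-1 clade B AD8 Env; potency is for inhibitors of fusion seen as a drop in luminescence.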 It counts as functional, cell-based.
Experiment [9] addresses T1, Mitochondrial peptide methionine sulfoxide reductase (Bos taurus, UniProt P54149).
T1 sequence (P54149 whole entry): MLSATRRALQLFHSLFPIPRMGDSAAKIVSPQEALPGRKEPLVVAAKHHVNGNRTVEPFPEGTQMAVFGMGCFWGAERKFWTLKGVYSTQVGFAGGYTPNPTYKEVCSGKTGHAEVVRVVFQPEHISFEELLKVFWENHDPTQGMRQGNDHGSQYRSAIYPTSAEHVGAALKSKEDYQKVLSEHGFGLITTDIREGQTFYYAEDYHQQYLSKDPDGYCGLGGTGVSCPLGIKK
Type of experiment: functional.

Experiment [10] in a line: off-target signal loss in HeLa-CEM21 co-culture – HeLa F-luc CTL cells, cherry-picked, counter-screen for HIV-1 Env fusion inhibitor project, dose response (AID 652040).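 Further: potency for signal decrease marking cytotoxic or nonspecific inhibition.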 Type of experiment: functional, cell-based.
The target of experiment [11] is T2, Sphingosine 1-phosphate receptor 4 (Homo sapiens, UniProt O95977).
T2 sequence (O95977 whole entry): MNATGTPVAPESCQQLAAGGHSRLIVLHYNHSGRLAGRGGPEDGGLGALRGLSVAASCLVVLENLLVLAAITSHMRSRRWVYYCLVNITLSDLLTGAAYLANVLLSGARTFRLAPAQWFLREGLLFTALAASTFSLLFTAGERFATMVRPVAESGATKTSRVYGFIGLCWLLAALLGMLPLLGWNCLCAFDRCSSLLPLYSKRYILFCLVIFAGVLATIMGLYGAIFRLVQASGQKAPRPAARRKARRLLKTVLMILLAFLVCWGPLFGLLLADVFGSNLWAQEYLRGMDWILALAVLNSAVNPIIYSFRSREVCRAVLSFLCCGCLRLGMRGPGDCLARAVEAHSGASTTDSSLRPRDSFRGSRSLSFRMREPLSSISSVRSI
The experiment can be described thus: Fluorescence dose response cell-based high throughput screening assay for antagonists of the Sphingosine 1-Phosphate Receptor 4 (S1P4). [Related pubchem assays: 1524 (Confirmation in triplicates.), 1510 (Primary screen.)]. Type of experiment: functional.

Experiment [12] is described as follows: MIN6 cell viability loss – mouse insulinoma, cytotoxicity control, dose response (AID 2122).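 Further: confirmatory high-throughput counterscreen run to flag cytotoxic compounds.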 It counts as functional.
Another experiment has as its target Beta-galactosidase (Escherichia coli, UniProt Q8VNN2). The experiment can be described thus: PubChem AID 485352. Type of experiment: functional.
The nature of experiment [13]: THP-1 cell cytotoxicity, dose response, cytotoxicity control for non-replicating M. tuberculosis project (AID 489025). It counts as functional.
Experiment [14] is described as follows: microbe, parasite or virus in culture. The conditions noted are these: Mycobacterium tuberculosis. It counts as functional.
A short description of experiment [15]: reduction of Shn3 3'UTR-driven luciferase in osteoblasts – cell-based, Clone20 osteoblasts, firefly luciferase, cherry-picked, dose response (AID 624132).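 Further: firefly luciferase luminescence from reporter carrying the Shn3 3'UTR in osteoblasts.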 Type of experiment: functional.
The nature of experiment [16]: Vero E6 cell cytotoxicity, dose response, cytotoxicity control for non-replicating M. tuberculosis project, secondary assay (AID 492998). It counts as functional, VeroE6. To be noted: Vero C1008.
Experiment [17] in a line: decrease of insulin promoter-GFP reporter – imaging, high-content screening, mouse beta cells (AID 1628). It counts as functional. The conditions noted are these: MIN6.
In experiment [18] the target is Sphingosine 1-phosphate receptor 1 (Homo sapiens, UniProt P21453). It counts as functional.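 Further: Tango beta-arrestin reporter U2OS cells stimulated with S1P near its EC80; inhibitor potency meaning antagonism of receptor activation by the natural agonist.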
In the next experiment the test system is BJ. The experiment can be described thus: BJ-TERT-LT-ST fibroblast viability loss – cell-based, RAS-independent, luminescence, dose response (AID 1935).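 Further: BJ fibroblasts immortalized with TERT plus LT and ST oncogenes.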 It counts as functional. The conditions noted are these: Homo sapiens.
Experiment [19] is described as follows: DRD fibroblast viability loss – cell-based, non-viral oncogenic, luminescence, dose response (AID 1934). It counts as functional. The conditions noted are these: Homo sapiens.
Experiment [20] can be described thus: Luminescence Cell-Based Dose Response HTS to Identify Inhibitors of 5'UTR Stem-Loop Driven Prion Protein mRNA Translation in H4 Neuroglioblastoma Cells. [Related pubchem assays: 1827 (Project Summary), 1813 (Primary HTS)]. Type of experiment: functional.
For a further experiment, the target named is Paired box protein Pax-8 (Homo sapiens, UniProt Q06710). The experiment can be described thus: PAX8 transcriptional activity inhibition in RMG-I – RMG-I cells, luciferase, cherry-pick, dose response (AID 687027).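 Further: luciferase reporter driven by Pax8 target thyroperoxidase promoter measured by SteadyGlo luminescence.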 It counts as functional, cell-based.
Experiment [21] in a line: luciferase reporter signal suppression in cells – H4 neuroglioma cells, luminescence, dose response (AID 1990). It counts as functional, cell-based.
In experiment [22] the target is T3, Heat shock factor protein 1 (Mus musculus, UniProt P38532).
T3 sequence (P38532 whole entry): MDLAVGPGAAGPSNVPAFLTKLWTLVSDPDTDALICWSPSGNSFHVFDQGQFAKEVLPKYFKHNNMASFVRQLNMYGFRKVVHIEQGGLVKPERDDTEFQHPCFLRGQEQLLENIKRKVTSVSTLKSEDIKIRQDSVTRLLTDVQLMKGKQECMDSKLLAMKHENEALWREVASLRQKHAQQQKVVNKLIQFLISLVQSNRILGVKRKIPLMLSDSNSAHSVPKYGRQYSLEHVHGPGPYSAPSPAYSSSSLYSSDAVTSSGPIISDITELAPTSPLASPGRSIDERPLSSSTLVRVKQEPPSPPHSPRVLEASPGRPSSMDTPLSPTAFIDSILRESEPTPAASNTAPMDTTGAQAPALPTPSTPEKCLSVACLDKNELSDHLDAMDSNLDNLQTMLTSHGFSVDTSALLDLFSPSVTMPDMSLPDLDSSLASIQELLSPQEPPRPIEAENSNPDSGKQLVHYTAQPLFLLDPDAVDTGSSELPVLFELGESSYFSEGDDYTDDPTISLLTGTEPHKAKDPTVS
The experiment can be described thus: enhancement of HSF1-driven luciferase signal – cell-based, NIH3T3, luminescence, dose retest, confirmation (AID 435004).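 Further: stress induced by proteasome inhibitor MG132 added 30 min after compound; luciferase reporter driven by HSF1 response element in NIH3T3 cells; actives raise luminescence as potentiators of the MG132 stress response.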 Type of experiment: functional.

Activity calls are given as the source filed them.

Sphingosine 1-phosphate receptor 1, sequence (P21453 whole entry): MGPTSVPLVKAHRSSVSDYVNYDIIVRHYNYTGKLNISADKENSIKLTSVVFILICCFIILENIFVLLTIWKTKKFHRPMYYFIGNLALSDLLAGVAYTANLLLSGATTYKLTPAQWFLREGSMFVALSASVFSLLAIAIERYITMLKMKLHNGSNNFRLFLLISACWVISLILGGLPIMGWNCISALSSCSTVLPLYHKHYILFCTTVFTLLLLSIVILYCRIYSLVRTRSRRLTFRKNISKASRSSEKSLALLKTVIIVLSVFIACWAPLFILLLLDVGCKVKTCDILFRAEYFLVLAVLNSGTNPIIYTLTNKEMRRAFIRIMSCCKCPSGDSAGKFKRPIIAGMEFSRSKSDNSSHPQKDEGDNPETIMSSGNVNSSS
Paired box protein Pax-8, sequence (Q06710 whole entry): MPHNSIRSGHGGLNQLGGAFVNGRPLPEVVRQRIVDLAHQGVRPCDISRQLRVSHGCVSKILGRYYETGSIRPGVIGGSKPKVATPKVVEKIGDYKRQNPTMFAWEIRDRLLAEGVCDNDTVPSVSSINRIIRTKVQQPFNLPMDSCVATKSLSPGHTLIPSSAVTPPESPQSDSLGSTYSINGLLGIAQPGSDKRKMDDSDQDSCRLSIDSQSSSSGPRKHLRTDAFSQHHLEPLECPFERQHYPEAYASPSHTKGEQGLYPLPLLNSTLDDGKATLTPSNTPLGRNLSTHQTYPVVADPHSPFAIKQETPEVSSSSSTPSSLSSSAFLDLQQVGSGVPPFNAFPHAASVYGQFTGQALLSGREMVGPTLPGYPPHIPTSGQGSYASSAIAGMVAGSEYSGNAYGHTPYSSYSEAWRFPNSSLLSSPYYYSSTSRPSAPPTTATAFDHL
Beta-galactosidase, sequence (Q8VNN2 whole entry): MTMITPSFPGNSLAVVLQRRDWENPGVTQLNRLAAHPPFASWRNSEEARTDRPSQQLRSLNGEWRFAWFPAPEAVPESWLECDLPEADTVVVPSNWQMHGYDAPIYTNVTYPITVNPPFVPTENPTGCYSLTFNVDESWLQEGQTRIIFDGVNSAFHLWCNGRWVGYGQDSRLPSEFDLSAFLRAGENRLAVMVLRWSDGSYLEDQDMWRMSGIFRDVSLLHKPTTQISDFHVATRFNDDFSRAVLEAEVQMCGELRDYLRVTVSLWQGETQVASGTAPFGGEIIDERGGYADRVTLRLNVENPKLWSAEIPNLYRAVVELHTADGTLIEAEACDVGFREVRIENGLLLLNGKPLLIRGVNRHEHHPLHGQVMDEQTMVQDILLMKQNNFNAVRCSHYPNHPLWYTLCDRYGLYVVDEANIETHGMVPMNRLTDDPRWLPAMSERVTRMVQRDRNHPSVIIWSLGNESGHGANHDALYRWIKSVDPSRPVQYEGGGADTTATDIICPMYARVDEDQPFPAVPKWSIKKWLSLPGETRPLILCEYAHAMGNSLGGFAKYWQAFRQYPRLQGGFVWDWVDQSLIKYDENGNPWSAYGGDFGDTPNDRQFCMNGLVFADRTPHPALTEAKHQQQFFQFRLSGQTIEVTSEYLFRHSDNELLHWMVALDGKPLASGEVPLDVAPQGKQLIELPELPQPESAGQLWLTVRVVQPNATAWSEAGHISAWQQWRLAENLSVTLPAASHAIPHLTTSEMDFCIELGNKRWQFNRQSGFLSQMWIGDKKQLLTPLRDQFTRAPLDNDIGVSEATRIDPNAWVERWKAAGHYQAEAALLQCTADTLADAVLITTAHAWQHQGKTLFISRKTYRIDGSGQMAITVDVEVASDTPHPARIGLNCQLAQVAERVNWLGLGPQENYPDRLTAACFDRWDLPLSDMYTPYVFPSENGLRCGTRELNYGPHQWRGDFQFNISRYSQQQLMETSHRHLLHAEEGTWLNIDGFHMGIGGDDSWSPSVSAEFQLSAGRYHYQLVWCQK
Peroxisome proliferator-activated receptor gamma/Nuclear receptor coactivator 1, sequence (P37231 whole entry): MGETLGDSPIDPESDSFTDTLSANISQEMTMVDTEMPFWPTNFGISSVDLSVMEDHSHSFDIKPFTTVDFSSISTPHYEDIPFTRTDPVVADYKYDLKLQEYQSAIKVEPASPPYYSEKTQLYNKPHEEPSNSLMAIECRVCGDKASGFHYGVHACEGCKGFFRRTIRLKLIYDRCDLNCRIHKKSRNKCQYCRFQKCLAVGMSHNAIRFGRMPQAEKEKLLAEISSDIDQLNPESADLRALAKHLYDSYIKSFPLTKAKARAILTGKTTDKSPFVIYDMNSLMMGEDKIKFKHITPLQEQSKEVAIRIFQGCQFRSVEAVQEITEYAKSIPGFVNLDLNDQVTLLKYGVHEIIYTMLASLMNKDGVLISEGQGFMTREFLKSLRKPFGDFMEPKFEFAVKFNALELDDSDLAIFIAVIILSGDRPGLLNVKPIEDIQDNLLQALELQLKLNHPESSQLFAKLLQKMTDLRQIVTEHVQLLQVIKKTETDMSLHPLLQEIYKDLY
Peroxisome proliferator-activated receptor gamma/Nuclear receptor coactivator 1, sequence (Q15788 whole entry, further chain): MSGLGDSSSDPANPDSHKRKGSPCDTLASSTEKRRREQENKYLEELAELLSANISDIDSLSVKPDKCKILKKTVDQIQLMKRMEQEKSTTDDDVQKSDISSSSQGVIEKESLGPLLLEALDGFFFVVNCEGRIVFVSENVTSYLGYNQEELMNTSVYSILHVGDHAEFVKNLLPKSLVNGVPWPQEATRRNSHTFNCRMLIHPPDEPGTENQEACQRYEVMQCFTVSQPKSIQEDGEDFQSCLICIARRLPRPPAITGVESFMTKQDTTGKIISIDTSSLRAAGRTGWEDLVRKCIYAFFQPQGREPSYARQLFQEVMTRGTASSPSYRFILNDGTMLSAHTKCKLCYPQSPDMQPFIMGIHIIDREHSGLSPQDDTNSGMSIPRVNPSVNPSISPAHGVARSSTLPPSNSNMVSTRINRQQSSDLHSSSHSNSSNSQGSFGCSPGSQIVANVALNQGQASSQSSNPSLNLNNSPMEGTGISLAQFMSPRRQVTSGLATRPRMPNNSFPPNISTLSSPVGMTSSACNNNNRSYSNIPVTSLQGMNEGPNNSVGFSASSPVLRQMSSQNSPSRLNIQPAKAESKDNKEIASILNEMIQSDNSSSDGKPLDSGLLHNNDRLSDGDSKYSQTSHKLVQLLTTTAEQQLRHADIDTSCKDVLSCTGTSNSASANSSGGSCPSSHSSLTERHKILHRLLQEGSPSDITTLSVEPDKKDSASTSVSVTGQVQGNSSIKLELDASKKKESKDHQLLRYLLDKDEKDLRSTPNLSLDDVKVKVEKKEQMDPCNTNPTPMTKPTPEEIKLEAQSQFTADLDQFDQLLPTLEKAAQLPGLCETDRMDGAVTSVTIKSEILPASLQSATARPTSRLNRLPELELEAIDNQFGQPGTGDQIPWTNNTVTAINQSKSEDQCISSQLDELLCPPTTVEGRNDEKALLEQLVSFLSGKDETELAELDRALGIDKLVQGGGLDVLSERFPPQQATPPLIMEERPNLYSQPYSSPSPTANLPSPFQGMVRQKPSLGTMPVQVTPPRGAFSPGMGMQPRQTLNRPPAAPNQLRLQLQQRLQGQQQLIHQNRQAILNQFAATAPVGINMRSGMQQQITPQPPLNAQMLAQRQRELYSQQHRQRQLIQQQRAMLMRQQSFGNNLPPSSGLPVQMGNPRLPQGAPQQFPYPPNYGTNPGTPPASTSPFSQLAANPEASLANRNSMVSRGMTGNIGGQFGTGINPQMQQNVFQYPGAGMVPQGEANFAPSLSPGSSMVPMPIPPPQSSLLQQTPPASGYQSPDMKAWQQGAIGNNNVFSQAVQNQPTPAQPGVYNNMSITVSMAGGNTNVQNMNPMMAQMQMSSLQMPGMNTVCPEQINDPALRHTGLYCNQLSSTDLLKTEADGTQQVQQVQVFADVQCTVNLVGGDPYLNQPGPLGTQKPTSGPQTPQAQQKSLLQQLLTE

The term IC50 denotes the concentration that inhibits the measured activity by half. The EC50 is the concentration giving half of the maximal effect. Turning to `[O-][N+]1=c2ccc(Nc3ccccc3)cc2=NC12CCCCC2`, the IC50 in experiment [1] was 0.637 µM (active). For the same molecule, the half-maximal effective concentration (EC50) in [2] is 14.4 µM (not active); in [3], 14.9 µM (inactive); in experiment [4] it was 1.9 µM (active). In addition, the CC50 in the experiment on Vero was 18.6 µM (active).
Usually AC50 stands for the concentration at which the activity in the assay is half-maximal. Regarding `CCc1ccc(S(=O)(=O)/N=C2\C=C(Nc3ccc(C(=O)O)cc3)C(=O)c3ccccc32)cc1`, the AC50 in [5] is 8.79 µM (active); in [7] it was 6.53 µM (active); in experiment [8], 3.52 µM (active); in experiment [10], 1.29 µM (active). Besides, the IC50 is 0.966 µM (active) in experiment [6] and 5 µM (active) in experiment [9].
On to `Oc1c(C(c2ccccc2Cl)N2CCCC2)ccc2cccnc12` (stereo unspecified), for which the IC50 in experiment [11] was 2.25 µM (active); in experiment [12] it was 4.59 µM (active); in experiment [17], 5.2 µM (active); in experiment [18], 5.93 µM (active). For the same molecule, the EC50 on Beta-galactosidase was > 40 µM (inactive). Moreover, the CC50 is 9.54 µM (active) in experiment [13], 30.5 µM (active) in experiment [14] and 9.56 µM (active) in experiment [16]. Moreover, in experiment [15], the AC50 is 5.77 µM (active).
In the case of `COc1cccc(/C=N/Nc2ccc([N+](=O)[O-])cn2)c1O`, the EC50 in the experiment with BJ is 4.96 µM (inconclusive); in experiment [19], 3.96 µM (active); in [20], 0.34 µM (active); in [21] it was 2.97 µM (active); in [22], 3.08 µM (active). Besides, the AC50 on Paired box protein Pax-8 was 6.41 µM (active).
